Patent publication US20160221948A1, “NITROGEN-CONTAINING SATURATED HETEROCYCLIC COMPOUND” (SUMITOMO CHEMICAL COMPANY, LIMITED, priority 2013, published 2016)

Target: human SSTR4 (Homo sapiens, UniProt P31391)
Assay: Evaluation of agonist activities using human SSTR4-stably expressing cells (aequorin luminescence)
Format: cell-based
Design: expressed in transfected cells; host or cells: HEK293
Settings: for EC50: luminescence signal, 1 μmol/L somatostatin taken as 100%; for SSTR4 agonist activity compared with other compounds: Tables 25 to 27
Experimental: Evaluation of Agonist Activities Using Cells that stably expressing human-derived SSTR4 (human SSTR4-stably expressing cells)
(1) Human SSTR4-Stably Expressing Cells
Human SSTR4-stably expressing cells were prepared, and cultured. Specifically, HEK293 cells, human kidney-derived cells, were used as host cells. By introducing pcDNA3.1 (cat. No. V79020, invitrogen, Carlsbad, Calif., USA) to which human SSTR gene was inserted into HEK293 cells, human SSTR4-stably expressing cell line was obtained. For selection, G418 (cat. No. 16513-84, Nacalai tesque, Japan) was used.
As the culture medium, D-MEM medium (cat. No. 11995, GIBCO, USA), containing 10% FBS and 200 μg/mL G418, was used, the culture was performed in a 225 cm^2 flask (cat. No. 11-006-010, Iwaki, Japan).
At about 80% confluence, the cells were harvested by treating with 20-fold diluted 0.25% Trypsin-EDTA (cat. No. 35554-64, Nacalai, tesque, Japan). The harvested cells were prepared at a reaction medium composed of Hanks Buffer (cat. No. 14065-056, invitrogen, Carlsbad, Calif., USA)/20 mM Hepes (cat. No. 15630-080, invitrogen, Carlsbad, Calif., USA), and 0.1% BSA (cat. No. A7906, Sigma Aldrich, USA) to 70000 cells/mL. Gα16 and apoaequorin were transiently introduced to the harvested cells, and the cells were seeded to a 384 well plate (cat. No. 781090, Greiner, Germany) at about 2000 cells/30 μL/well. On the next day of cell seeding, Coelenterazine H (cat. No. S2011, Promega, USA) was added to each well (10 μL/well) to make a final concentration of 0.5 μmol/L, and the plate was centrifuged. Then, the plate was left at room temperature for 4 hours in shaded state.
(2) Preparation of Test Compounds
DMSO solution of each test compound having 1000-fold larger concentration than the final concentration was prepared. The DMSO solutions were made to have 10-fold concentration than the final concentration with Hanks/20 mmol/L Hepes/0.1% BSA.
(3) Evaluation of Agonist Activity
For detection of luminescence signal due to SSTR4-stimulation, FDSS7000 (manufactured by Hamamatsu Photonics K.K.) was used. To plates having cells and the luminescence substrate, solutions of test compounds were added, then each luminescence signal was measured for 90 seconds, and each relative luminescence unit (RLU) was calculated. Based on luminescence signal from the wells to which a 1 μmol/L somatostatin solution was added taken as 100%, agonist activity of each test compound was evaluated.

Chain of human SSTR4 (P31391 whole entry): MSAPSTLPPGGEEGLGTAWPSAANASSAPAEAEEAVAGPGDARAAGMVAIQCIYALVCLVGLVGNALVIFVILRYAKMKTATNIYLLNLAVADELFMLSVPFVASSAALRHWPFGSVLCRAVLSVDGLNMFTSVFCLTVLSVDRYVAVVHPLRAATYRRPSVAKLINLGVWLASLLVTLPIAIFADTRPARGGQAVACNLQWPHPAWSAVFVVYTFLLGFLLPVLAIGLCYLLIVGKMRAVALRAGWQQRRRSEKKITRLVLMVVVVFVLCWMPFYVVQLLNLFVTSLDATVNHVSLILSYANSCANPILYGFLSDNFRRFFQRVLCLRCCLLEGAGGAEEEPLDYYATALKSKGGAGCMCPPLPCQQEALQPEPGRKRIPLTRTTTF

Row | SMILES | EC50 [nM] | SSTR4 agonist activity compared with other compounds
1 | CCCCN1CCCC(C(=O)NC(C)(C)c2cccc3ccccc23)C1 (centres unmarked) [Example 118] | 55.2 | –
2 | CN1CCC[C@H](C(=O)NC(C)(C)c2cc(F)ccc2Cl)C1 [Example 73, (3S)—N-[2-(2-chloro-5-fluorohenyl)propane-2-yl]-1-methylpiperidine-3-carboxamide] | 7.1 | –
3 | CN1CC(C(=O)NC(C)(C)c2cccc(Cl)c2Cl)CC(F)(F)C1 (centres unmarked) [Example 101] | 33.6 | –
4 | CN1CCC(C(=O)NC(C)(C)c2cccc3ccccc23)C1 (centres unmarked) [Example 77] | 3 | –
5 | CN1CCCC(C(=O)NC(C)(C)c2cccc(Cl)c2Cl)C1c1ccccc1 (centres unmarked) [Example 98] | > 100 | –
6 | CN1CCC[C@H](C(=O)NC(C)(C)c2ccc(F)cc2Cl)C1 [Example 72, (3S)—N-[2-(2-chloro-4-fluorohenyl)propane-2-yl]-1-methylpiperidine-3-carboxamide] | 2.8 | –
7 | CN1CCC[C@H](C(=O)NC(C)(C)c2c(F)cccc2Cl)C1 [Example 74] | 20.9 | –
8 | CN1CCC[C@H](C(=O)NC(C)(C)c2ccccc2S(C)(=O)=O)C1 [Example 64] | > 100 | –
9 | Cc1ccc(C(C)(C)NC(=O)[C@H]2CCCN(C)C2)c(C)c1 [Example 35, (3S)—N-[2-(2,4-dimethylphenyl)propane-2-yl]-1-methylpiperidine-3-carboxamide] | 3.3 | –
10 | CN1CC(C(=O)NC(C)(C)c2cccc3ccccc23)CC(C)(C)C1 (centres unmarked) [Example 93] | 6 | –
11 | CN1CCCC(C(=O)NC(c2cccc3ccccc23)C(F)(F)F)C1 (centres unmarked) [Example 3] | 12.6 | –
12 | CC[C@@H]1CC[C@@H](C(=O)NC(C)(C)c2cccc(Cl)c2Cl)CN1C (relative stereo) [Example 99] | > 100 | –
13 | CCC1CCC(C(=O)NC(C)(C)c2cccc(Cl)c2Cl)CN1C (centres unmarked) [Example 102] | 61.8 | –
14 | Cc1cccc(C2(NC(=O)C3CCCN(C)C3)CC2)c1C (centres unmarked) [Example 5, N-[1-(2,3-dimethylphenyl)cyclopropyl]-1-methylpiperidine-3-carboxamide] | 34.1 | –
15 | CC[C@@H]1CC[C@H](C(=O)NC(C)(C)c2cccc3ccccc23)CN1C (relative stereo) [Example 90] | 3.1 | stronger SSTR4 agonist activity
16 | Cc1ccc(C(C)(C)NC(=O)[C@H]2CCCN(C)C2)c(Cl)c1 [Example 37, (3S)—N-[2-(2-chloro-4-methylphenyl)propane-2-yl]-1-methylpiperidine-3-carboxamide] | 2.5 | stronger SSTR4 agonist activity
17 | Cc1cc(C)cc(C(C)(C)NC(=O)[C@H]2CCCN(C)C2)c1 [Example 25] | 15.9 | –
18 | Cc1c(Cl)cccc1C(C)(C)NC(=O)[C@@H]1CC[C@H](C)N(C)C1 (relative stereo) [Example 87] | 9.4 | –
19 | [2H]C([2H])([2H])N1CCC[C@H](C(=O)NC(C)(C)c2ccccc2Cl)C1 [Example 122] | 3.6 | –
20 | Cc1cc(Cl)ccc1C(C)(C)NC(=O)C1CCCN(C)C1 (centres unmarked) [Example 12, N-[2-(4-chloro-2-methylphenyl)propane-2-yl]-1-methylpiperidine-3-carboxamide] | 9.7 | –
21 | COc1ccccc1C(C)(C)NC(=O)[C@@H]1CN(C)CC[C@H]1c1ccccc1 (relative stereo) [Example 108] | 2.2 | stronger SSTR4 agonist activity
22 | Cc1cccc(C(C)(C)NC(=O)[C@H]2CCCN(C)C2)c1C [Example 23, (3S)—N-[2-(2,3-dimethylphenyl)propane-2-yl]-1-methylpiperidine-3-carboxamide] | 7.4 | –
23 | CN1CCCC(C(=O)NC(C)(C)c2ccc(Cl)c(Cl)c2)C1 (centres unmarked) [Example 10] | 24.2 | –
24 | CN1CCC[C@H](C(=O)NC(C)(C)c2ccc(Cl)cc2)C1 [Example 42] | 45.6 | –
25 | CN1CCC[C@H](C(=O)NC(C)(C)c2cccc(Cl)c2Cl)C1 [Example 19, (3S)—N-[2-(2,3-dichlorophenyl)propane-2-yl]-1-methylpiperidine-3-carboxamide] | 1.8 | stronger SSTR4 agonist activity
